The results in this text go back to patent US10889573B2, “Anthelmintic quinoline-3-carboxamide derivatives” (Bayer Animal Health GMBH, priority 2016, dated 2021).

As usually defined, the EC50 is the concentration giving half of the maximal effect. Broadly, the mortality is the percentage killed.

A short description of data set [1]: log P by HPLC on reversed phase columns (Method L0).
Protocol: Measurement of log P values was performed according to EEC directive 79/831 Annex V.A8 by HPLC (High Performance Liquid Chromatography) on reversed phase columns with the following methods: • ^[a] log P value is determined by measurement of LC-UV, in an acidic range, with 0.1% formic acid in water and acetonitrile as eluent (linear gradient from 10% acetonitrile to 95% acetonitrile). • ^[b] log P value is determined by measurement of LC-UV, in a neutral range, with 0.001 molar ammonium acetate solution in water and acetonitrile as eluent (linear gradient from 10% acetonitrile to 95% acetonitrile).
Calibration was done with straight-chain alkan-2-ones (with 3 to 16 carbon atoms) with known log P values (measurement of log P values using retention times with linear interpolation between successive alkanones).
In data set [2] the test system is Nippostrongylus brasiliensis. In words: In vitro assay 2: Nippostrongylus brasiliensis (NIPOBR), acetylcholine esterase readout. Particulars: 1 μg/ml, read-out: activity (reduction of AChE compared to negative control). The essentials: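 Readout was acetylcholine esterase activity released into the medium, compared with negative control, after exposing adult worms to compounds at final 10 ppm (10 μg/ml) or 1 ppm (1 μg/ml). Worms were first washed in antibiotic/amphotericin B-containing saline; compounds were dissolved in DMSO.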

The test system of data set [3] is Dirofilaria immitis microfilariae. In words: In vitro assay 3: Dirofilaria immitis microfilariae (DIROIM L1), motility. The following applies: 72 h, read-out: EC50 (reduction of motility), 72 h incubation.
In data set [4] the target is C. elegans Slo-1a (Caenorhabditis elegans, UniProt Q95V25). Particulars: pE50 (negative decadic logarithm of EC50), CHO cells expressing C. elegans Slo-1a, voltage sensitive dye.
C. elegans Slo-1a, sequence (Q95V25 whole entry): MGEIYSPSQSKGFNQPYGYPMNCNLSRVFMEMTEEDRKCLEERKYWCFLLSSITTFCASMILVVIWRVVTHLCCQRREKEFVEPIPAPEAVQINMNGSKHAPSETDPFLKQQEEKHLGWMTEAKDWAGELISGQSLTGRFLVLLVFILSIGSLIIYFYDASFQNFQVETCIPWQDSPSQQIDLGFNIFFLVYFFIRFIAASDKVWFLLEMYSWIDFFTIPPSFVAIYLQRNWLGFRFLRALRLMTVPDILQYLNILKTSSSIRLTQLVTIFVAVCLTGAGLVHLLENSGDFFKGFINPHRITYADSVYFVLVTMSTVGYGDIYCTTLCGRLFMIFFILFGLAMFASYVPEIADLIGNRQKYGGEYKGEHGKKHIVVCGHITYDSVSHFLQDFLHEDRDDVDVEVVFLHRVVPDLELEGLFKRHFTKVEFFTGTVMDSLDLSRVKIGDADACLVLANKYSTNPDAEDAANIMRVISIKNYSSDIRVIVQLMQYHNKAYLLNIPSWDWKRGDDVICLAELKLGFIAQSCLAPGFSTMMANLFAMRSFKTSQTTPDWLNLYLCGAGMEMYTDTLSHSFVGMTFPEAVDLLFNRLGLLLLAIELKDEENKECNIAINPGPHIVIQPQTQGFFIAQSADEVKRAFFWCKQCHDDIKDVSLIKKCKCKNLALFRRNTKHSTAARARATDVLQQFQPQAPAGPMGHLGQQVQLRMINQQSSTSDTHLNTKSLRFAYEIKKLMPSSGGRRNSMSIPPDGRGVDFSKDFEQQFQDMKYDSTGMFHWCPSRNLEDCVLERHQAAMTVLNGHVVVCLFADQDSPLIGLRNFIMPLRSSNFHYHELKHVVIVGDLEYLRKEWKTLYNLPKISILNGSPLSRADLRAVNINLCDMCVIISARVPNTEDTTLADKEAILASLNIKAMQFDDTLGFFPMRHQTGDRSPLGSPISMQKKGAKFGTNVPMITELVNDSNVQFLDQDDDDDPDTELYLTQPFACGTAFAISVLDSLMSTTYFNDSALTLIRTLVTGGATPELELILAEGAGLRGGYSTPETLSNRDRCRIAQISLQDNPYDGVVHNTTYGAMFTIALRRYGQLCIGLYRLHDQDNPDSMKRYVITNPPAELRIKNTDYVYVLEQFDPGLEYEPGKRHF
For data set [5], the system named is Cooperia curticei. Particulars: Cooperia curticei, 120 h, read-out: activity (larval mortality).
Protocol: In Vitro Assay 6: Cooperia curticei (COOPCU L3)
Solvent: dimethyl sulfoxide
Approximately 40 nematode larvae (Cooperia curticei) are transferred into a test tube containing the compound solution.
After 5 days percentage of larval mortality is recorded. 100% efficacy means all larvae are killed; 0% efficacy means no larvae are killed.
The test system of data set [6] is Haemonchus contortus. Particulars: 120 h, read-out: activity (larval mortality).
Protocol: In Vitro Assay 7: Haemonchus contortus (HAEMCO L3)
Solvent: dimethyl sulfoxide
Approximately 40 larvae of the red stomach worm (Haemonchus contortus) are transferred into a test tube containing compound solution.
After 5 days the percentage of larval mortality is recorded. 100% efficacy means all larvae are killed, 0% efficacy means no larvae are killed.
The test system of data set [7] is Dirofilaria immitis third-stage larvae. The data set can be described thus: In vitro assay 4: Dirofilaria immitis (DIROIM L4), motility. The following applies: 72 h, read-out: EC50 (reduction of motility).
Setting [8] is: acidic range, 0.1% formic acid in water / acetonitrile.
The mark [9] stands for this setting: HPLC on reversed phase columns, Method L0.

A value given as a limit tells only on which side of the number the result lay.

Regarding `CCOC(=O)c1cnc2c(-c3cc(F)cc(F)c3F)cccc2c1N(C)C` [Example 1U-5], the “logP (Method L0)[a]” value in data set [1] (setting [8]) is 2.40.
Turning to `CCOC(=O)c1cnc2c(-c3cc(Cl)cc(Cl)c3Cl)c(F)ccc2c1N(C)C` [Example 1U-8], the “logP (Method L0)[a]” value in data set [1] (setting [8]) was 4.57.
Take `CCOC(=O)c1cnc2c(-c3cc(F)cc(F)c3F)c(F)ccc2c1N(C)C` [Example 1U-11]: the “logP (Method L0)[a]” value in data set [1] (setting [8]) is 2.40.
Still for that read-out and setting: in the case of `CCOC(=O)c1cnc2c(-c3cc(Cl)cc(Cl)c3)cccc2c1N1CCOCC1` [Example 1U-13] it was 5.19; in that of `CCOC(=O)c1cnc2c(-c3cccc(Cl)c3Cl)cccc2c1N1CCOCC1` [Example 1U-15], 3.90; in that of `O=C(O)c1cnc2c(-c3cccc(Cl)c3Cl)cccc2c1N1CCOCC1` [Example 1W-15], 1.86.
For `CN(C)c1c(C(=O)N[C@H]2CCOc3ccccc32)cnc2c(-c3cc(Cl)cc(Cl)c3)cccc12` [Example 8], the “logP (Method L0)[a]” value in data set [1] (setting [9]) stood at 2.53.
Same read-out and setting: in the case of `Nc1c(C(=O)N[C@H]2CCOc3ccccc32)cnc2c(-c3cc(Cl)cc(Cl)c3)cccc12` [Example 58] it was 2.11.
On the same count and under the same terms, in the case of `CN(C)CCNc1c(C(=O)N[C@H]2CCc3ccccc32)cnc2c(-c3cc(Cl)cc(Cl)c3)cccc12` [Example 88] it was 1.3; in that of `COCCNc1c(C(=O)N[C@H]2CCc3ccccc32)cnc2c(-c3cc(Cl)cc(Cl)c3)cccc12` [Example 89], 2.2.
Still for that read-out and setting: in the case of `CCN(CCOC)c1c(C(=O)N[C@H]2CCc3ccccc32)cnc2c(-c3cc(Cl)cc(Cl)c3)cccc12` [Example 90] it was 4.9; in that of `COC[C@@H]1CCCN1c1c(C(=O)N[C@H]2CCc3ccccc32)cnc2c(-c3cc(Cl)cc(Cl)c3)cccc12` [Example 91], 2.9.
Take `COC[C@H]1CCCN1c1c(C(=O)N[C@H]2CCc3ccccc32)cnc2c(-c3cc(Cl)cc(Cl)c3)cccc12` [Example 92]: the “logP (Method L0)[a]” value in data set [1] (setting [9]) is on record as 2.9.
The same measure, in the same setting: in the case of `O=C(N[C@H]1CCc2ccccc21)c1cnc2c(-c3cc(Cl)cc(Cl)c3)cccc2c1NCCN1CCCC1` [Example 96] it was 1.4; in that of `O=C(N[C@H]1CCc2ccccc21)c1cnc2c(-c3cc(Cl)cc(Cl)c3)cccc2c1NCc1ccccn1` [Example 99-1], 2.2.
With `CCC(CO)Nc1c(C(=O)NC2CCc3ccccc32)cnc2c(-c3cc(Cl)cc(Cl)c3)cccc12` (stereo not drawn) [Example 99-2], in data set [1] (setting [9]), the “logP (Method L0)[a]” value stood at 2.1.
`O=C(N[C@H]1CCc2ccccc21)c1cnc2c(-c3cc(Cl)cc(Cl)c3)cccc2c1NCCO` [Example 100]: the “logP (Method L0)[a]” value in data set [1] (setting [9]) is reported as 1.9.
As to `O=C(N[C@H]1CCc2ccccc21)c1cnc2c(-c3cc(Cl)cc(Cl)c3)cccc2c1N1CC[C@@H](O)C1` [Example 101], in data set [1] (setting [9]), the “logP (Method L0)[a]” value was found to be 1.8.
On to `CN(CC1CC1)c1c(C(=O)N[C@H]2CCc3ccccc32)cnc2c(-c3cc(Cl)cc(Cl)c3)cccc12` [Example 106], for which, in data set [1] (setting [9]), the “logP (Method L0)[a]” value amounted to 3.7.
Same read-out and setting: in the case of `O=C(N[C@H]1CCc2ccccc21)c1cnc2c(-c3cc(Cl)cc(Cl)c3)cccc2c1N1CCC(F)(F)C1` [Example 112] it was 2.6.
`CC(=O)N1CCN(c2c(C(=O)N[C@H]3CCc4ccccc43)cnc3c(-c4cc(Cl)cc(Cl)c4)cccc23)CC1` [Example 116]: in data set [1] (setting [9]), the “logP (Method L0)[a]” value is reported as 3.4.
Same read-out and setting: in the case of `CN(C)C(=O)CCNc1c(C(=O)N[C@H]2CCc3ccccc32)cnc2c(-c3cc(Cl)cc(Cl)c3)cccc12` [Example 122] it was 2; in that of `O=C(N[C@H]1CCc2ccccc21)c1cnc2c(-c3cc(Cl)cc(Cl)c3)cccc2c1NCCn1cccn1` [Example 125], 2.1.
On the same count and under the same terms, in the case of `C[C@H](Nc1c(C(=O)N[C@H]2CCc3ccccc32)cnc2c(-c3cc(Cl)cc(Cl)c3)cccc12)C(N)=O` [Example 127] it was 1.9.
The same measure, in the same setting: in the case of `COC(=O)CNc1c(C(=O)N[C@H]2CCc3ccccc32)cnc2c(-c3cc(Cl)cc(Cl)c3)cccc12` [Example 128] it was 2.1.
For the molecule `NC(=O)CNc1c(C(=O)N[C@H]2CCc3ccccc32)cnc2c(-c3cc(Cl)cc(Cl)c3)cccc12` [Example 129], the “logP (Method L0)[a]” value in data set [1] (setting [9]) is 1.8.
On the same count and under the same terms, in the case of `O=C(N[C@H]1CCOc2ccccc21)c1cnc2c(-c3cc(Cl)cc(Cl)c3)cccc2c1Nc1ccncc1` [Example 136] it was 2.1.
On the same count and under the same terms, in the case of `CN(CCO)c1c(C(=O)N[C@H]2CCOc3ccccc32)cnc2c(-c3cc(Cl)cc(Cl)c3)cccc12` [Example 138] it was 2.7; in that of `COc1ccc2c(c1)[C@@H](NC(=O)c1cnc3c(-c4cc(Cl)cc(Cl)c4)cccc3c1N(C)C)CCO2` [Example 147], 2.76; in that of `CN(CCN1CCOCC1)c1c(C(=O)N[C@H]2CCOc3ccccc32)cnc2c(-c3cc(Cl)cc(Cl)c3)cccc12` [Example 149], 2.2.
Still for that read-out and setting: in the case of `CN(C)c1c(C(=O)N[C@H]2CCOc3cc(F)ccc32)cnc2c(-c3cc(Cl)cc(Cl)c3)cccc12` [Example 152] it was 3; in that of `CCNc1c(C(=O)N[C@H]2CCOc3ccccc32)cnc2c(-c3cc(Cl)cc(Cl)c3)cccc12` [Example 153], 2.1.
For `O=C(N[C@H]1CCOc2ccccc21)c1cnc2c(-c3cc(Cl)cc(Cl)c3)cccc2c1N1CC[C@@H](C(=O)O)C1` [Example 332], in data set [2], the inhibition at 1 µg/mL is more than 80%. In addition, the EC50 in data set [3] was less than 0.1 µg/mL; in data set [4] it was less than 3.16 nM; in data set [7] it was less than 0.1 µg/mL. The mortality at 4 ppm in data set [5] and in data set [6] was 100% throughout. Further, the mortality at 20 ppm in data set [5] and in data set [6] was 100% each time.
Take `CC(C)c1c(C(=O)N[C@H]2CCOc3ccccc32)cnc2c(-c3cc(Cl)cc(Cl)c3)cccc12` [Example 359, 8-(3,5-dichlorophenyl)-N-[(4S)-3,4-dihydro-2H-chromen-4-yl]-4-isopropyl-quinoline-3-carboxamide]: the inhibition at 1 µg/mL in data set [2] is more than 80%. The EC50 in data set [3] is less than 0.1 µg/mL; in data set [4], less than 3.16 nM; in data set [7] it was less than 0.1 µg/mL. The mortality at 4 ppm in data set [5] and in data set [6] was 100% throughout. Moreover, the mortality at 20 ppm in data set [5] and in data set [6] was 100% in each case.
Turning to `CC(C)c1c(C(=O)N[C@H]2CCOc3ccccc32)cnc2c(-c3cccc(C(F)(F)F)c3F)cccc12` [Example 408], the inhibition at 1 µg/mL in data set [2] is more than 80%. For the same molecule, the half-maximal effective concentration (EC50) in data set [3] is less than 0.1 µg/mL; in data set [4] it was less than 3.16 nM; in data set [7], less than 0.1 µg/mL. Besides, the figures for the mortality at 4 ppm in data set [5] and in data set [6] were 100% and 90%, respectively. In addition, the mortality at 20 ppm in data set [5] stood at 100%; in data set [6], 90%.
For the molecule `CC(C)c1c(C(=O)N[C@H]2CCOc3ccccc32)cnc2c(-c3cccc(C(F)(F)F)c3)cccc12` [Example 411], the inhibition at 1 µg/mL in data set [2] was more than 80%. In addition, the EC50 in data set [3] is less than 0.1 µg/mL; in data set [4] it was less than 3.16 nM; in data set [7] it was less than 0.1 µg/mL. Further, the mortality at 4 ppm in data set [5] and in data set [6] was 100% throughout. Also, the mortality at 20 ppm in data set [5] and in data set [6] was 100% throughout.
In the case of `CN(C)c1c(C(=O)N[C@H]2CCOc3ccccc32)cnc2c(-c3cc(Cl)ncc3Cl)cccc12` [Example 415], the inhibition at 1 µg/mL in data set [2] is more than 80%. Besides, the values for the EC50 in data set [3], in data set [4] and in data set [7] were less than 0.1 µg/mL, less than 3.16 nM and less than 0.1 µg/mL, respectively. The mortality at 4 ppm in data set [5] was found to be 100%; in data set [6] it was 90%. The mortality at 20 ppm in data set [5] and in data set [6] was 100% throughout.
Consider `COc1ccc(-c2cc(Cl)cc(Cl)c2)c2ncc(C(=O)N[C@H]3CCOc4ccccc43)c(N(C)C)c12` [Example 504], for which, in data set [2], the inhibition at 1 µg/mL is more than 80%. In addition, the figures for the EC50 in data set [3], in data set [4] and in data set [7] were less than 0.1 µg/mL, less than 3.16 nM and less than 0.1 µg/mL, respectively. Besides, the mortality at 4 ppm in data set [5] and in data set [6] was 100% each time. Further, the mortality at 20 ppm in data set [5] and in data set [6] was 100% each time.
For the molecule `CCc1c(C(=O)N[C@H]2CCOc3ccccc32)cnc2c(-c3cc(Cl)cc(Cl)c3Cl)cccc12` [Example 573], the inhibition at 1 µg/mL in data set [2] was more than 80%. For the same molecule, the concentration giving a half-maximal response (EC50) in data set [3] is less than 0.1 µg/mL; in data set [4], 3.16 to 31.6 nM; in data set [7], less than 0.1 µg/mL. For the same molecule, the mortality at 4 ppm in data set [5] and in data set [6] was 100% in each case. In addition, the mortality at 20 ppm in data set [5] and in data set [6] was 100% throughout.
Regarding `O=C(N[C@H]1CCOc2ccccc21)c1cnc2c(-c3cc(F)cc(F)c3F)cccc2c1C1COC1` [Example 660, N-[(4S)-3,4-dihydro-2H-chromen-4-yl]-4-(oxetan-3-yl)-8-(2,3,5-trifluorophenyl)quinoline-3-carboxamide], in data set [2], the inhibition at 1 µg/mL was more than 80%. The 50% effective concentration (EC50) in data set [3] is less than 0.1 µg/mL; in data set [4] it was less than 3.16 nM; in data set [7], less than 0.1 µg/mL. The mortality at 4 ppm in data set [5] and in data set [6] was 100% each time. The mortality at 20 ppm in data set [5] and in data set [6] was 100% throughout.
